Legend:
[1] = tested on: NQO1 mRNA in BEAS-2B cells; assay: Beas2B NQO1 mRNA cell based assay; set-up: species or system human; conditions: Homo sapiens, BEAS-2B, 24 h, 24 h compound treatment, increase in NQO1 mRNA vs vehicle (0.1% DMSO), read-out: EC50
In short: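 Relative NQO1 transcript level derived by ΔΔCT with human β-actin as internal control, using direct-lysate one-step RT-qPCR. Cells were BEAS-2B, plated overnight then treated with compound for 24 h.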

[2] = target: human KEAP1 (N-term, residues 321-609) (Homo sapiens, UniProt Q14145); assay: biochemical;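 note: fluorescence polarization competition assay of Kelch domain binding to NRF2, 12-point 1:3 dilution series from 10 µM, read after 1 h at room temperature, floor 10 nM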
Sequence of human KEAP1 (N-term, residues 321-609) (Q14145 321-609): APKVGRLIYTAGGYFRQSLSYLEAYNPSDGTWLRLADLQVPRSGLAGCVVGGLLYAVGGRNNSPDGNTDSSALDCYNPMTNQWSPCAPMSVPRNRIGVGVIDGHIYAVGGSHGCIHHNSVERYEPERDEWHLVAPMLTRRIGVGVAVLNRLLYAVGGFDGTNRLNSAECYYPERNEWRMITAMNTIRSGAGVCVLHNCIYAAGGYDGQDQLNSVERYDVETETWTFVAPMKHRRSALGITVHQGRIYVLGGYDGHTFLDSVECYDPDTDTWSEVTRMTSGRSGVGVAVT

Structure (SMILES)	EC50 [1]	IC50 [2]
O=C(O)[C@H]1CCCC[C@H]1C(=O)N1CCc2c(Br)ccc(OCc3nnc4n3CCCC4)c2[C@H]1CN1Cc2ccccc2C1=O [Example 44, (1S,2R)-2-((S)-5-bromo-1-((1-oxoisoindolin-2-yl)methyl)-8-((5,6,7,8-tetrahydro-[1,2,4]triazolo[4,3-a]pyridin-3-yl)methoxy)-1,2,3,4-tetrahydroisoquinoline-2-carbonyl)cyclohexane-1-carboxylic acid]	10 nM	4.2 nM
CC(Oc1ccc(Br)c2c1[C@@H](CN1Cc3ccccc3C1=O)N(C(=O)[C@@H]1CCCC[C@@H]1C(=O)O)CC2)c1cn(C)nn1 (stereo partly drawn) [Example 45, (1S,2R)-2-((1S)-5-bromo-8-(1-(1-methyl-1H-1,2,3-triazol-4-yl)ethoxy)-1-((1-oxoisoindolin-2-yl)methyl)-1,2,3,4-tetrahydroisoquinoline-2-carbonyl)cyclohexane-1-carboxylic acid]	110 nM	4.9 nM
Cn1nnc2cc(COc3ccc(Cl)c4c3[C@@H](CN3Cc5ccccc5C3=O)N(C(=O)[C@@H]3CCCC[C@@H]3C(=O)O)CC4)ccc21 [Example 48, (1S,2R)-2-((S)-5-chloro-8-((1-methyl-1H-benzo[d][1,2,3]triazol-5-yl)methoxy)-1-((1-oxoisoindolin-2-yl)methyl)-1,2,3,4-tetrahydroisoquinoline-2-carbonyl)cyclohexane-1-carboxylic acid]	4.4 nM	8 nM
Cc1cc(COc2ccc(Cl)c3c2[C@@H](CN2Cc4ccccc4C2=O)N(C(=O)[C@@H]2CCCC[C@@H]2C(=O)O)CC3)no1 [Example 49, (1S,2R)-2-((S)-5-chloro-8-((5-methylisoxazol-3-yl)methoxy)-1-((1-oxoisoindolin-2-yl)methyl)-1,2,3,4-tetrahydroisoquinoline-2-carbonyl)cyclohexane-1-carboxylic acid]	19 nM	11 nM
O=C(O)[C@H]1CCCC[C@H]1C(=O)N1CCc2c(Cl)ccc(OCc3nnc4ccccn34)c2[C@H]1CN1Cc2ccccc2C1=O [Example 50]	2 nM	7.7 nM
O=C(O)[C@H]1CCCC[C@H]1C(=O)N1CCc2c(Cl)ccc(OCc3nccn3CC(F)(F)F)c2[C@H]1CN1Cc2ccccc2C1=O [Example 51, (1S,2R)-2-((S)-5-chloro-1-((1-oxoisoindolin-2-yl)methyl)-8-((1-(2,2,2-trifluoroethyl)-1H-imidazol-2-yl)methoxy)-1,2,3,4-tetrahydroisoquinoline-2-carbonyl)cyclohexane-1-carboxylic acid]	110 nM	10 nM
O=C(O)[C@H]1CCCC[C@H]1C(=O)N1CCc2c(Cl)ccc(OCc3nccn3CC(F)F)c2[C@H]1CN1Cc2ccccc2C1=O [Example 52, (1S,2R)-2-((S)-5-chloro-8-((1-(2,2-difluoroethyl)-1H-imidazol-2-yl)methoxy)-1-((1-oxoisoindolin-2-yl)methyl)-1,2,3,4-tetrahydroisoquinoline-2-carbonyl)cyclohexane-1-carboxylic acid]	140 nM	13 nM
Cn1nnc(COc2ccc(Cl)c3c2[C@@H](CN2Cc4ccccc4C2=O)N(C(=O)[C@@H]2CCCC[C@@H]2C(=O)O)CC3)c1C(F)F [Example 53, (1S,2R)-2-((S)-5-chloro-8-((5-(difluoromethyl)-1-methyl-1H-1,2,3-triazol-4-yl)methoxy)-1-((1-oxoisoindolin-2-yl)methyl)-1,2,3,4-tetrahydroisoquinoline-2-carbonyl)cyclohexane-1-carboxylic acid]	1.4 nM	6.2 nM
Cn1nnc(COc2ccc(Cl)c3c2[C@@H](CN2Cc4ccccc4C2=O)N(C(=O)[C@@H]2CCCC[C@@H]2C(=O)O)CC3)c1C(F)(F)F [Example 54, (1S,2R)-2-((S)-5-Chloro-8-((1-methyl-5-(trifluoromethyl)-1H-1,2,3-triazol-4-yl)methoxy)-1-((1-oxoisoindolin-2-yl)methyl)-1,2,3,4-tetrahydroisoquinoline-2-carbonyl)cyclohexane-1-carboxylic acid]	7.2 nM	3.6 nM
CCn1ccc(COc2ccc(Cl)c3c2[C@@H](CN2Cc4ccccc4C2=O)N(C(=O)[C@@H]2CCCC[C@@H]2C(=O)O)CC3)n1 [Example 55, (1S,2R)-2-((S)-5-chloro-8-((1-ethyl-1H-pyrazol-3-yl)methoxy)-1-((1-oxoisoindolin-2-yl)methyl)-1,2,3,4-tetrahydroisoquinoline-2-carbonyl)cyclohexane-1-carboxylic acid]	73 nM	5.6 nM
Cn1cnc(COc2ccc(Cl)c3c2[C@@H](CN2Cc4ccccc4C2=O)N(C(=O)[C@@H]2CCCC[C@@H]2C(=O)O)CC3)c1C(F)F [Example 56, (1S,2R)-2-((S)-5-Chloro-8-((5-(difluoromethyl)-1-methyl-1H-imidazol-4-yl)methoxy)-1-((1-oxoisoindolin-2-yl)methyl)-1,2,3,4-tetrahydroisoquinoline-2-carbonyl)cyclohexane-1-carboxylic acid]	4.8 nM	4.2 nM
CC(C)n1cc(COc2ccc(Cl)c3c2[C@@H](CN2Cc4ccccc4C2=O)N(C(=O)[C@@H]2CCCC[C@@H]2C(=O)O)CC3)nn1 [Example 57, (1S,2R)-2-((S)-5-chloro-8-((1-isopropyl-1H-1,2,3-triazol-4-yl)methoxy)-1-((1-oxoisoindolin-2-yl)methyl)-1,2,3,4-tetrahydroisoquinoline-2-carbonyl)cyclohexane-1-carboxylic acid]	2.7 nM	6.6 nM
CC(C)n1cc(COc2ccc(F)c3c2[C@@H](CN2Cc4ccccc4C2=O)N(C(=O)[C@@H]2CCCC[C@@H]2C(=O)O)CC3)nn1 [Example 58, (1S,2R)-2-((S)-5-fluoro-8-((1-isopropyl-1H-1,2,3-triazol-4-yl)methoxy)-1-((1-oxoisoindolin-2-yl)methyl)-1,2,3,4-tetrahydroisoquinoline-2-carbonyl)cyclohexane-1-carboxylic acid]	68 nM	8 nM
Cc1ccc(OCc2cn(C(C)C)nn2)c2c1CCN(C(=O)[C@@H]1CCCC[C@@H]1C(=O)O)[C@@H]2CN1Cc2ccccc2C1=O [Example 59, (1S,2R)-2-((S)-8-((1-isopropyl-1H-1,2,3-triazol-4-yl)methoxy)-5-methyl-1-((1-oxoisoindolin-2-yl)methyl)-1,2,3,4-tetrahydroisoquinoline-2-carbonyl)cyclohexane-1-carboxylic acid]	21 nM	11 nM
CC(C)n1cc(COc2ccc(C#N)c3c2[C@@H](CN2Cc4ccccc4C2=O)N(C(=O)[C@@H]2CCCC[C@@H]2C(=O)O)CC3)nn1 [Example 60, (1S,2R)-2-((S)-5-cyano-8-((1-isopropyl-1H-1,2,3-triazol-4-yl)methoxy)-1-((1-oxoisoindolin-2-yl)methyl)-1,2,3,4-tetrahydroisoquinoline-2-carbonyl)cyclohexane-1-carboxylic acid]	2.8 nM	96 nM
COc1ccc(OCc2cn(C(C)C)nn2)c2c1CCN(C(=O)[C@@H]1CCCC[C@@H]1C(=O)O)[C@@H]2CN1Cc2ccccc2C1=O [Example 61, (1S,2R)-2-((S)-8-((1-isopropyl-1H-1,2,3-triazol-4-yl)methoxy)-5-methoxy-1-((1-oxoisoindolin-2-yl)methyl)-1,2,3,4-tetrahydroisoquinoline-2-carbonyl)cyclohexane-1-carboxylic acid]	63 nM	5.6 nM
CC(C)n1cc(COc2ccc(C(F)(F)F)c3c2[C@@H](CN2Cc4ccccc4C2=O)N(C(=O)[C@@H]2CCCC[C@@H]2C(=O)O)CC3)nn1 [Example 62, (1S,2R)-2-((S)-8-((1-isopropyl-1H-1,2,3-triazol-4-yl)methoxy)-1-((1-oxoisoindolin-2-yl)methyl)-5-(trifluoromethyl)-1,2,3,4-tetrahydroisoquinoline-2-carbonyl)cyclohexane-1-carboxylic acid]	120 nM	14 nM
O=C(O)[C@H]1CCCC[C@H]1C(=O)N1CCc2c(Br)ccc(O[C@H]3CCN(C(=O)c4cncs4)C3)c2[C@H]1CN1CCCC1=O [Example 63, (1S,2R)-2-((S)-5-bromo-1-((2-oxopyrrolidin-1-yl)methyl)-8-(((S)-1-(thiazole-5-carbonyl)pyrrolidin-3-yl)oxy)-1,2,3,4-tetrahydroisoquinoline-2-carbonyl)cyclohexane-1-carboxylic acid]	84 nM	9.1 nM
O=C(O)[C@H]1CCCC[C@H]1C(=O)N1CCc2c(Br)ccc(OCc3nnc4ccccn34)c2[C@H]1CN1CCCC1=O [Example 64, (1S,2R)-2-((S)-8-[(1,2,4]triazolo[4,3-a]pyridin-3-ylmethoxy)-5-bromo-1-((2-oxopyrrolidin-1-yl)methyl)-1,2,3,4-tetrahydroisoquinoline-2-carbonyl)cyclohexane-1-carboxylic acid]	23 nM	6.3 nM
Cc1cnc(COc2ccc(Br)c3c2[C@@H](CN2CCCC2=O)N(C(=O)[C@@H]2CCCC[C@@H]2C(=O)O)CC3)s1 [Example 65, (1S,2R)-2-((S)-5-bromo-8-((5-methylthiazol-2-yl)methoxy)-1-((2-oxopyrrolidin-1-yl)methyl)-1,2,3,4-tetrahydroisoquinoline-2-carbonyl) cyclohexane-1-carboxylic acid]	97 nM	11 nM
CC(C)c1nc(COc2ccc(Br)c3c2[C@@H](CN2CCCC2=O)N(C(=O)[C@@H]2CCCC[C@@H]2C(=O)O)CC3)no1 [Example 66, (1S,2R)-2-((S)-5-bromo-8-((5-isopropyl-1,2,4-oxadiazol-3-yl)methoxy)-1-((2-oxopyrrolidin-1-yl)methyl)-1,2,3,4-tetrahydroisoquinoline-2-carbonyl) cyclohexane-1-carboxylic acid]	27 nM	5.7 nM
O=C(O)[C@H]1CCCC[C@H]1C(=O)N1CCc2c(Br)ccc(OCc3noc4ccccc34)c2[C@H]1CN1CCCC1=O [Example 67]	4.8 nM	8.5 nM
